The target in assay [1] is T1, neurokinin-2 receptor (NK2R/CHO cells) (Homo sapiens, UniProt P21452).
T1 construct: expressed in transfected cells; host or cells: CHO cells (NK2R/CHO)
T1 sequence (P21452 1-398): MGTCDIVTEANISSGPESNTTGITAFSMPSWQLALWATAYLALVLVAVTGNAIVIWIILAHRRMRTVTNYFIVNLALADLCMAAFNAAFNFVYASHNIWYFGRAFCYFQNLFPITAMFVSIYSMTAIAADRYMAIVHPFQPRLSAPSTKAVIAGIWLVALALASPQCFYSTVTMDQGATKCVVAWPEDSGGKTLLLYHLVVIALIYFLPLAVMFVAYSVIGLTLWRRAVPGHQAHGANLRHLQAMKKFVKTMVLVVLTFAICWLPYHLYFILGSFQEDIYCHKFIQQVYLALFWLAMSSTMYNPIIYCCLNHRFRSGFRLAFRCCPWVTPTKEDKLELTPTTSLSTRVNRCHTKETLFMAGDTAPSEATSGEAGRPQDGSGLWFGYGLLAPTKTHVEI
Kind of assay: Displacement of Cy5-NKA bound to NK2R/CHO cells by SR48,968. The format is binding.
Method: (a) Cells expressing neurokinin-2 receptor (NK2R/CHO) were obtained.
A culture of NK2R/CHO cells, near confluence, was washed with 12 mL DPBS(Mg^+2 & Ca^+2 free), trypsinized by adding trypsin (2 mL/T-25 flask), incubating at 37° C. for about 5 min, then quenching with 10 mL media. Cells were then counted, and diluted to the desired final concentration of cells (5,000 cells/25 μL). […] The plate was covered and wrapped in aluminum foil to protect from light and left to shake for 1 hr at room temperature. For each sample, 25 μL was removed, placed in an IMAGN 2000™ capillary, and read using IMAGN™ software (Biometric Imaging, Inc.) The sample was allowed to settle until the cells rested on the bottom of the well. The time require for settling was typically 10 minutes.
SR-48,968 is a known inhibitor of the binding of NKA neurokinin 2 receptor.
"Max" and "min" refer to the maximum and minimum fluorescence for the relevant value.
% Control=((Value-Min)/(Max-Min))×100

The target in the next assay is IL-8 receptor. Nature of the assay: conventional [^125 I]IL-8 ligand displacement assay. It is filed as binding.

pIC50, pKi: −log10 of the molar value.

Compound `CC(=O)NC1(c2ccccc2)CCN(CCC(CN(C)C(=O)c2ccccc2)c2ccc(Cl)c(Cl)c2)CC1` (stereo not shown) [SR48.968] showed a pIC50 in assay [1] of 9.24. Moreover, the “estimated Ki” value in assay [1] (displacement of Cy5-NKA) is on record as roughly 0.29 nM. In assay [1] (displacement of Cy5-NKA by SR48.968), this compound yielded a Hill coefficient of 0.996.

Turning to “hIL(S72C)-Cy5: Human interleukin-8, Ser72→Cys mutant (hIL-8(S72C)), labelled with monofunctional Cy5-iodoacetamide”, the pKi on IL-8 receptor was 8.70.

What is called pIC50 is the negative decadic logarithm of the IC50, by convention in mol/L. Lower therefore signals a high IC50. What is called Hill coefficient is the slope factor of the fitted curve. By pKi is commonly meant −log10 of the Ki, conventionally taken in molar units. A higher pKi goes with a low Ki.

These data come from patent publication US5876946A, “High-throughput assay” (Pharmacopeia, Inc., priority 1997, dated 1999).
